In patent publication US20230310628A1, “Multi-Targeted Multi-Valent Ligand Drug Particles for the Treatment and Prevention of Diseases and Conditions” (priority 2017, published 2023):

Test system: cell lines expressing HER2 and EGFR
Experiment: Cytotoxicity studies in vitro, free versus liposomal doxorubicin
Assay type: cell-based, human
Conditions: compared with liposomal doxorubicin
Description: Cytotoxicity studies were conducted with doxorubicin as it is the staple drug for liposomal delivery.
For cytotoxicity studies, cells cultured overnight in 96-well plates (10*10^3 cells/well) were incubated with doxorubicin-load liposomes (100 μg/ml with 1/3 dilutions) at 37° C. for 4 hr, washed with PBS, and grown in medium for 3 additional days. Cell viability was analyzed by MTT assay.

## COc1cccc2c1C(=O)c1c(O)c3c(c(O)c1C2=O)C[C@@](O)(C(=O)CO)C[C@@H]3O[C@H]1C[C@H](N)[C@H](O)[C@H](C)O1 [free doxorubicin, doxorubicin]
  effectiveness in cytotoxicity studies in vitro: most effective
